Test systems include MDA-MB-231 breast; SN12C renal; EKVX NSCLC; TK-10 renal; SF-539 CNS; OVCAR-3 ovarian; U251 CNS; PC-3 prostate; RPMI-8226 leukemia; A549 NSCLC.
Common to all, as to assay: NCI tumour cell line growth inhibition, 48 h

Consider twelve compounds from PubChem BioAssay (NCI).

Values joined by “and” are separate entries in the source; they are usually repeats but may differ in a detail not shown here. Equal values may be shown once.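 Cells were grown in 96-well plates and exposed to each compound for 48 hours at five concentrations; endpoints were interpolated linearly between bracketing concentrations, or set to the highest concentration if not reached. Abbreviation: GI50, concentration required for 50% inhibition of growth. The concentration for full growth arrest is given as TGI.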

For `CC(=O)O[C@H]1CC[C@@]2(C)C(=C/C(=N/OCCN3CCCC3)[C@H]3[C@@H]4CC[C@H](OC(C)=O)[C@@]4(C)CC[C@@H]32)C1`, the GI50 was 38.7 µM in the experiment on MDA-MB-231 breast; over 100 µM in the experiment with SN12C renal; over 100 µM with EKVX NSCLC; 90.4 µM in the experiment with TK-10 renal; over 100 µM with SF-539 CNS; over 100 µM in the experiment on OVCAR-3 ovarian. The GI50 is 67.1 µM with U251 CNS, 40.5 µM with PC-3 prostate, 22 µM in the experiment on RPMI-8226 leukemia and 63.3 µM in the experiment with A549 NSCLC. Moreover, the TGI in the experiment with MDA-MB-231 breast, in the experiment on SN12C renal, with EKVX NSCLC, in the experiment on TK-10 renal, with SF-539 CNS and in the experiment on OVCAR-3 ovarian was over 100 µM in each case. The TGI in the experiment with U251 CNS is over 100 µM; in the experiment with PC-3 prostate, over 100 µM; with RPMI-8226 leukemia it was 53.3 µM; in the experiment with A549 NSCLC it was over 100 µM.
On to `COc1cc2c(c(OC)c1OC)-c1ccc(N=NC(N)=S)c(=O)cc1[C@@H](NC(C)=O)CC2`, for which the GI50 in the experiment with MDA-MB-231 breast is 0.592 µM; in the experiment with SN12C renal, 1.52 µM; in the experiment with EKVX NSCLC, over 100 µM; in the experiment with TK-10 renal, 9.01 µM; in the experiment on SF-539 CNS it was 0.311 µM; in the experiment with OVCAR-3 ovarian, 0.263 µM. Also, the GI50 is 0.426 µM with U251 CNS, 0.617 µM with PC-3 prostate, 0.708 µM with RPMI-8226 leukemia and 3.63 µM with A549 NSCLC. Besides, the TGI with MDA-MB-231 breast is over 27.7 µM; in the experiment on SN12C renal, over 100 µM; in the experiment with EKVX NSCLC, over 100 µM; with TK-10 renal, over 100 µM; in the experiment on OVCAR-3 ovarian, 0.642 µM; with U251 CNS it was over 100 µM. The TGI in the experiment with PC-3 prostate, in the experiment with RPMI-8226 leukemia and in the experiment with A549 NSCLC was over 100 µM throughout.
On to `CCOc1ccc2c(c1)c(CC(=O)O)cn2C`, for which the TGI in the experiment with MDA-MB-231 breast, with SN12C renal, in the experiment with EKVX NSCLC, in the experiment on TK-10 renal, in the experiment with SF-539 CNS and in the experiment on OVCAR-3 ovarian was over 100 µM each time. Moreover, the TGI with U251 CNS, in the experiment on PC-3 prostate, in the experiment with RPMI-8226 leukemia and in the experiment with A549 NSCLC was over 100 µM throughout.
With `C[C@@H](CO)NC(=O)c1cc(-c2ccc(Cl)cc2)nn(-c2cnn(C)c2)c1=O`, the GI50 in the experiment with MDA-MB-231 breast was 51.5 µM; in the experiment with SN12C renal it was 19.3 µM; in the experiment on EKVX NSCLC, 26 µM; in the experiment on TK-10 renal, 3.12 µM; with SF-539 CNS, 16 µM; in the experiment with OVCAR-3 ovarian, 45.5 µM. In addition, the GI50 in the experiment with U251 CNS is 42.9 µM; in the experiment on PC-3 prostate, 27.8 µM; with RPMI-8226 leukemia it was 20.5 µM; in the experiment with A549 NSCLC, 20.3 µM. Moreover, the TGI in the experiment on MDA-MB-231 breast was over 100 µM; in the experiment on SN12C renal, over 100 µM; in the experiment on EKVX NSCLC, over 100 µM; with TK-10 renal, 47 µM; in the experiment with SF-539 CNS it was 48.3 µM; in the experiment with OVCAR-3 ovarian it was over 100 µM. For the same compound, the TGI in the experiment with U251 CNS was over 100 µM; in the experiment with PC-3 prostate it was over 100 µM; in the experiment on RPMI-8226 leukemia it was over 100 µM; in the experiment with A549 NSCLC, 67.7 µM.
`Cc1cccc2c3c(sc12)C(c1ccc(F)cc1)C(C#N)=C(N)O3` (configuration not stated): the GI50 in the experiment with MDA-MB-231 breast was 0.346 µM; in the experiment on SN12C renal, 0.159 µM; in the experiment with EKVX NSCLC, 0.141 µM; with TK-10 renal it was 5.51 µM; with SF-539 CNS it was 0.0473 µM; in the experiment on OVCAR-3 ovarian, 0.0401 µM. In addition, the GI50 is 0.13 µM in the experiment on U251 CNS, 0.045 µM in the experiment with PC-3 prostate, 0.048 µM in the experiment with RPMI-8226 leukemia and 0.135 µM with A549 NSCLC. In addition, the TGI amounted to 8.4 µM in the experiment on MDA-MB-231 breast; 11.7 µM with SN12C renal; 17.6 µM with EKVX NSCLC; 23 µM in the experiment on TK-10 renal; 0.679 µM in the experiment on SF-539 CNS; 1.85 µM in the experiment with OVCAR-3 ovarian. Further, the TGI came out at 12.6 µM in the experiment with U251 CNS, 11.3 µM in the experiment with PC-3 prostate, 8.31 µM in the experiment with RPMI-8226 leukemia and 14.1 µM in the experiment on A549 NSCLC.
On to `Cc1nc2ccccc2nc1N=Nc1ccccc1`, for which the GI50 was 16.2 µM in the experiment with MDA-MB-231 breast; 30 µM in the experiment with SN12C renal; 10.9 µM in the experiment on EKVX NSCLC; 48.8 µM in the experiment with TK-10 renal; 27.9 µM with SF-539 CNS; 12.9 µM in the experiment with OVCAR-3 ovarian. In addition, the GI50 with U251 CNS is 35.9 µM; in the experiment with PC-3 prostate, 6.57 µM; with RPMI-8226 leukemia it was 12.2 µM; in the experiment with A549 NSCLC, 37.3 µM. In addition, the TGI in the experiment with MDA-MB-231 breast was 69.1 µM; in the experiment on SN12C renal it was over 100 µM; with EKVX NSCLC it was over 100 µM; with TK-10 renal it was over 100 µM; in the experiment on SF-539 CNS it was over 100 µM; with OVCAR-3 ovarian, 82.1 µM. For the same compound, the TGI in the experiment on U251 CNS is over 100 µM; with PC-3 prostate, 60.2 µM; in the experiment on RPMI-8226 leukemia it was 42.8 µM; with A549 NSCLC, over 100 µM.
`COCCOCCOCc1n(Cc2ccc3ccccc3n2)c2ccccc2[n+]1Cc1ccc2ccccc2n1`: the GI50 in the experiment with MDA-MB-231 breast was 1.02 µM; in the experiment on SN12C renal, 0.306 µM; with EKVX NSCLC it was 2.55 µM; in the experiment with TK-10 renal, 4.02 µM; with SF-539 CNS it was 0.852 µM; in the experiment with OVCAR-3 ovarian, 0.479 µM. Besides, the GI50 is 0.354 µM in the experiment with U251 CNS, 0.591 µM in the experiment on PC-3 prostate, 0.138 µM in the experiment on RPMI-8226 leukemia and 3.21 µM in the experiment on A549 NSCLC. Moreover, the TGI amounted to 9.58 µM with MDA-MB-231 breast; 11.1 µM in the experiment with SN12C renal; 24.4 µM with EKVX NSCLC; 16.2 µM in the experiment with TK-10 renal; 13.6 µM in the experiment on SF-539 CNS; 13.8 µM in the experiment with OVCAR-3 ovarian. For the same compound, the TGI in the experiment on U251 CNS came to 12.9 µM; in the experiment on PC-3 prostate it was 11.7 µM; in the experiment with RPMI-8226 leukemia it was 12.4 µM; in the experiment with A549 NSCLC, 69.5 µM.
Consider `CC1OC(CC(=O)O)CC2=C1C(=O)c1c(O)cccc1C2=O` (configuration not stated), for which the TGI with MDA-MB-231 breast amounted to 0.707 µM; in the experiment on SN12C renal, 0.716 µM; with EKVX NSCLC, 2.02 µM; in the experiment on TK-10 renal, 1.82 µM; in the experiment with SF-539 CNS, 2.43 µM; in the experiment on OVCAR-3 ovarian, 0.299 µM. The TGI amounted to 2.38 µM in the experiment with U251 CNS, 0.817 µM with PC-3 prostate, 0.241 µM with RPMI-8226 leukemia and 7.96 µM in the experiment with A549 NSCLC.
Consider `O=C(CC1C=Cc2ccccc2N1C(=O)c1ccccc1)c1ccccc1` (configuration not stated), for which the TGI with MDA-MB-231 breast is 94 µM; in the experiment with SN12C renal, 45.9 µM; in the experiment with EKVX NSCLC it was 47.4 µM; with TK-10 renal it was over 100 µM; with SF-539 CNS it was 66.7 µM; in the experiment with OVCAR-3 ovarian it was 34.7 µM. Further, the TGI was 65.1 µM in the experiment on U251 CNS, 96.6 µM in the experiment with PC-3 prostate, 39.9 µM in the experiment on RPMI-8226 leukemia and over 100 µM in the experiment with A549 NSCLC.
Turning to `N#CC(C#N)=C/C=C(\Sc1ccc(F)cc1Cl)c1ccc(Cl)cc1`, the GI50 with MDA-MB-231 breast was 0.478 µM; in the experiment on SN12C renal, 0.365 µM; in the experiment on EKVX NSCLC it was 8.42 µM; in the experiment on TK-10 renal, 0.5 µM; with SF-539 CNS it was 0.391 µM; in the experiment on OVCAR-3 ovarian it was 0.762 µM. Besides, the GI50 with U251 CNS was 0.414 µM; in the experiment on PC-3 prostate, 1.42 µM; in the experiment with RPMI-8226 leukemia, 0.0963 µM; with A549 NSCLC it was 2.22 µM. For the same compound, the TGI in the experiment on MDA-MB-231 breast worked out at 2.27 µM; with SN12C renal, 1.34 µM; in the experiment with EKVX NSCLC, 26.9 µM; in the experiment on TK-10 renal, 2.08 µM; in the experiment on SF-539 CNS it was 3.59 µM; with OVCAR-3 ovarian, 2.64 µM. The TGI with U251 CNS came out at 1.69 µM; in the experiment on PC-3 prostate it was 10.4 µM; in the experiment on RPMI-8226 leukemia, 0.515 µM; with A549 NSCLC, 12.5 µM.
`CCCCNc1ccc(Nc2ccccc2)cc1`: the GI50 is 16.9 µM in the experiment with MDA-MB-231 breast; 6.28 µM in the experiment on SN12C renal; 3.53 µM in the experiment on EKVX NSCLC; 4.27 µM in the experiment on TK-10 renal; 11.8 µM with SF-539 CNS; 3.79 µM in the experiment with OVCAR-3 ovarian. The GI50 is 3.89 µM in the experiment with U251 CNS, 3.15 µM in the experiment on PC-3 prostate, 1.72 µM with RPMI-8226 leukemia and 4.38 µM with A549 NSCLC. The TGI was 95 µM with MDA-MB-231 breast; over 100 µM in the experiment on SN12C renal; over 100 µM in the experiment on EKVX NSCLC; 56.3 µM in the experiment with TK-10 renal; 57.3 µM with SF-539 CNS; over 100 µM with OVCAR-3 ovarian. Also, the TGI in the experiment with U251 CNS was over 100 µM; with PC-3 prostate it was 38.2 µM; in the experiment with RPMI-8226 leukemia, 4.86 µM; in the experiment with A549 NSCLC, 52.9 µM.
Consider `COc1ccc2c(c1)-c1nn(CCCN(C)C)c3ccc([N+](=O)[O-])c(c13)N2`, for which the GI50 in the experiment on MDA-MB-231 breast was 0.198 µM and 1.17 µM; in the experiment with EKVX NSCLC, 0.393 µM and 1 µM; in the experiment with TK-10 renal, 0.345 µM and 0.809 µM; in the experiment with SF-539 CNS, 0.163 µM and 0.602 µM; in the experiment on OVCAR-3 ovarian it was 0.339 µM and 1.11 µM; in the experiment with U251 CNS, 0.178 µM and 0.502 µM. Further, the GI50 in the experiment with PC-3 prostate was 0.112 µM and 0.343 µM; with A549 NSCLC, 0.164 µM and 0.368 µM. Further, the TGI in the experiment with MDA-MB-231 breast is 2.79 µM and 12 µM; with SN12C renal it was 3.68 µM and 10.1 µM; in the experiment with EKVX NSCLC, 4.22 µM and 9.84 µM; in the experiment on TK-10 renal it was 4.69 µM and 7.86 µM; with SF-539 CNS, 3.17 µM and 7.49 µM; in the experiment with OVCAR-3 ovarian, 3.95 µM and 7.29 µM. For the same compound, the TGI is 4.94 µM and 14.7 µM in the experiment on U251 CNS; 2.75 µM and 3.93 µM with PC-3 prostate; 25.5 µM with RPMI-8226 leukemia; 2.51 µM and 2.28 µM in the experiment on A549 NSCLC.
